Assay results taken from ChEMBL document CHEMBL1201862, “PubChem BioAssay data set” (2004).
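Briefly, cells in 96-well plates were exposed to five compound concentrations for 48 h, and endpoints were estimated by linear interpolation. Abbreviation: GI50, concentration required for 50% inhibition of growth.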 Activity calls are given as the source filed them. No stated cut-off is given here; in the data, active = GI50 up to about 1.1 µM and inactive = higher.

Columns and labels:
Assay in all cases: NCI anticancer screen, dose series, 48 h
U-251 = tested on: U-251
SK-OV-3 = tested on: SK-OV-3
HT-29 = tested on: HT-29
MDA-MB-435 = tested on: MDA-MB-435
HCC 2998 = tested on: HCC 2998
CCRF-CEM = tested on: CCRF-CEM
T47D = tested on: T47D
EKVX = tested on: EKVX
SR = tested on: SR
SW-620 = tested on: SW-620
RPMI-8226 = tested on: RPMI-8226
HOP-62 = tested on: HOP-62
A498 = tested on: A498
SK-MEL-28 = tested on: SK-MEL-28
HCT-116 = tested on: HCT-116
M14 = tested on: M14
SK-MEL-5 = tested on: SK-MEL-5
Hs-578T = tested on: Hs-578T
NCI/ADR-RES = tested on: NCI/ADR-RES
UACC-62 = tested on: UACC-62
CAKI-1 = tested on: CAKI-1
OVCAR-8 = tested on: OVCAR-8
HOP-92 = tested on: HOP-92
A549 = tested on: A549
NCI-H226 = tested on: NCI-H226
786-0 = tested on: 786-0
RXF 393 = tested on: RXF 393
COLO 205 = tested on: COLO 205
LOX IMVI = tested on: LOX IMVI
UACC-257 = tested on: UACC-257
HL-60 = tested on: HL-60
SF-539 = tested on: SF-539
IGROV-1 = tested on: IGROV-1
ACHN = tested on: ACHN
KM12 = tested on: KM12
Malme-3M = tested on: Malme-3M
BT-549 = tested on: BT-549
PC-3 = tested on: PC-3
SNB-75 = tested on: SNB-75
OVCAR-4 = tested on: OVCAR-4
SF-295 = tested on: SF-295
MDA-N = tested on: MDA-N
OVCAR-3 = tested on: OVCAR-3
SN12C = tested on: SN12C
DU-145 = tested on: DU-145
SF-268 = tested on: SF-268
SK-MEL-2 = tested on: SK-MEL-2
MCF7 = tested on: MCF7
NCI-H23 = tested on: NCI-H23
MOLT-4 = tested on: MOLT-4
UO-31 = tested on: UO-31
NCI-H522 = tested on: NCI-H522
OVCAR-5 = tested on: OVCAR-5
TK-10 = tested on: TK-10
NCI-H460 = tested on: NCI-H460
SNB-19 = tested on: SNB-19
MDA-MB-231 = tested on: MDA-MB-231
K562 = tested on: K562
HCT-15 = tested on: HCT-15

For FC(F)(F)c1nc2ccc(SSc3ccc4nc(C(F)(F)F)[nH]c4c3)cc2[nH]1, the GI50 (U-251) was 84.1 µM (inactive), the GI50 (SK-OV-3) was > 10 µM (inactive) and the GI50 (HT-29) was > 10 µM (inactive). The GI50 (MDA-MB-435) was 40.6 µM (inactive), the GI50 (HCC 2998) was 38.3 µM (inactive) and the GI50 (CCRF-CEM) was > 10 µM (inactive). The GI50 (T47D) was 38.8 µM (inactive), the GI50 (EKVX) was > 10 µM (inactive) and the GI50 (SR) was 30.7 µM (inactive). The GI50 (SW-620) was 61.1 µM (inactive), the GI50 (RPMI-8226) was 25.1 µM (inactive) and the GI50 (HOP-62) was 31.6 µM (inactive). The GI50 (A498) was > 10 µM (inactive), the GI50 (SK-MEL-28) was > 10 µM (inactive) and the GI50 (HCT-116) was > 10 µM (inactive). For the same compound, the GI50 (M14) was 94.2 µM (inactive), the GI50 (SK-MEL-5) was 45.9 µM (inactive) and the GI50 (Hs-578T) was > 10 µM (inactive). The GI50 (NCI/ADR-RES) was > 10 µM (inactive), the GI50 (UACC-62) was 73.8 µM (inactive) and the GI50 (CAKI-1) was > 10 µM (inactive). For the same compound, the GI50 (OVCAR-8) was 92.3 µM (inactive), the GI50 (HOP-92) was > 10 µM (inactive) and the GI50 (A549) was 42.3 µM (inactive). The GI50 (NCI-H226) was > 10 µM (inactive), the GI50 (786-0) was 50.5 µM (inactive) and the GI50 (RXF 393) was > 10 µM (inactive). For the same compound, the GI50 (COLO 205) was 33.9 µM (inactive), the GI50 (LOX IMVI) was 40.5 µM (inactive) and the GI50 (UACC-257) was 35.9 µM (inactive). The GI50 (HL-60) was 48.8 µM (inactive), the GI50 (SF-539) was 41.8 µM (inactive) and the GI50 (IGROV-1) was > 10 µM (inactive). For the same compound, the GI50 (ACHN) was 88.7 µM (inactive), the GI50 (KM12) was > 10 µM (inactive) and the GI50 (Malme-3M) was > 10 µM (inactive). For the same compound, the GI50 (BT-549) was 92.7 µM (inactive), the GI50 (PC-3) was 36.6 µM (inactive) and the GI50 (SNB-75) was > 10 µM (inactive). The GI50 (OVCAR-4) was 61.5 µM (inactive), the GI50 (SF-295) was 4.41 µM (inactive) and the GI50 (MDA-N) was 80.5 µM (inactive). The GI50 (OVCAR-3) was 36.6 µM (inactive), the GI50 (SN12C) was 46.7 µM (inactive) and the GI50 (DU-145) was > 10 µM (inactive). The GI50 (SF-268) was > 10 µM (inactive), the GI50 (SK-MEL-2) was > 10 µM (inactive) and the GI50 (MCF7) was 35.7 µM (inactive). For the same compound, the GI50 (NCI-H23) was 47.5 µM (inactive), the GI50 (MOLT-4) was 27.3 µM (inactive) and the GI50 (UO-31) was 31.6 µM (inactive). For the same compound, the GI50 (NCI-H522) was 49 µM (inactive), the GI50 (OVCAR-5) was > 100 µM (inactive) and the GI50 (TK-10) was 79.3 µM (inactive). For the same compound, the GI50 (NCI-H460) was 24.5 µM (inactive), the GI50 (SNB-19) was > 10 µM (inactive) and the GI50 (MDA-MB-231) was 23 µM (inactive). For the same compound, the GI50 (K562) was 31.9 µM (inactive) and the GI50 (HCT-15) was 93.5 µM.

In the case of Cc1ccc2c(O)cc(-c3ccc(C)s3)nc2n1, the GI50 (U-251) is reported as 0.413 µM (active), the GI50 (SK-OV-3) is reported as 0.746 µM (active) and the GI50 (HT-29) is reported as 0.526 µM (active). For the same compound, the GI50 (MDA-MB-435) was 0.0264 µM (active), the GI50 (HCC 2998) was 0.805 µM (active) and the GI50 (CCRF-CEM) was 0.276 µM (active). For the same compound, the GI50 (T47D) was 0.506 µM (active), the GI50 (EKVX) was 2.95 µM (inactive) and the GI50 (SR) was 0.0893 µM (active). The GI50 (SW-620) was 0.106 µM (active), the GI50 (RPMI-8226) was 0.248 µM (active) and the GI50 (HOP-62) was 1.07 µM (active). For the same compound, the GI50 (A498) was 0.762 µM (active), the GI50 (HCT-116) was 0.295 µM (active) and the GI50 (M14) was 0.303 µM (active). For the same compound, the GI50 (SK-MEL-5) was 0.139 µM (active), the GI50 (Hs-578T) was 0.297 µM (active) and the GI50 (NCI/ADR-RES) was 0.129 µM (active). The GI50 (UACC-62) was 0.35 µM (active), the GI50 (CAKI-1) was 0.811 µM (active) and the GI50 (OVCAR-8) was 0.652 µM (active). For the same compound, the GI50 (HOP-92) was 5.21 µM (inactive), the GI50 (A549) was 0.531 µM (active) and the GI50 (NCI-H226) was 0.357 µM (active). The GI50 (786-0) was 0.443 µM (active), the GI50 (RXF 393) was 0.656 µM (active) and the GI50 (COLO 205) was 0.459 µM (active). The GI50 (LOX IMVI) was 0.472 µM (active), the GI50 (UACC-257) was 16.6 µM (inactive) and the GI50 (HL-60) was 0.0775 µM (active). For the same compound, the GI50 (SF-539) was 0.325 µM (active), the GI50 (IGROV-1) was 0.44 µM (active) and the GI50 (ACHN) was 0.731 µM (active). The GI50 (KM12) was 0.0912 µM (active), the GI50 (Malme-3M) was 0.94 µM (active) and the GI50 (BT-549) was 0.804 µM (active). For the same compound, the GI50 (PC-3) was 0.234 µM (active), the GI50 (SNB-75) was 0.254 µM (active) and the GI50 (OVCAR-4) was 12.7 µM (inactive). The GI50 (SF-295) was 0.267 µM (active), the GI50 (MDA-N) was 0.0213 µM (active) and the GI50 (OVCAR-3) was 0.34 µM (active). For the same compound, the GI50 (SN12C) was 0.556 µM (active), the GI50 (DU-145) was 0.993 µM (active) and the GI50 (SF-268) was 2.34 µM (inactive). For the same compound, the GI50 (SK-MEL-2) was 59.3 µM (inactive), the GI50 (MCF7) was 0.27 µM (active) and the GI50 (NCI-H23) was 0.277 µM (active). For the same compound, the GI50 (MOLT-4) was 0.624 µM (active), the GI50 (UO-31) was 0.439 µM (active) and the GI50 (NCI-H522) was 0.219 µM (active). For the same compound, the GI50 (OVCAR-5) was 1.91 µM (inactive), the GI50 (TK-10) was 19.3 µM (inactive) and the GI50 (NCI-H460) was 0.456 µM (active). The GI50 (SNB-19) was 0.644 µM (active), the GI50 (MDA-MB-231) was 1.73 µM (inactive) and the GI50 (K562) was 0.423 µM (active). For the same compound, the GI50 (HCT-15) was 0.0863 µM.
